According to PMC12613848, “First in human phase 1 study of DT2216, a selective BCL-xL degrader, in patients with relapsed/refractory solid malignancies” (Journal of Hematology & Oncology, 2025):
Several values for one entry are separate records, joined by “and”; a condition that tells them apart may be missing. Identical values can stand only once. Entries after “also recorded” stand apart in the source; their conditions may differ.

Tests used:
BCL-XL [1] = target: T1, BCL-XL (Homo sapiens, UniProt Q07817); assay: BCL-XL levels in peripheral leukocytes of patients by western blotting; assay type: in vivo; conditions: 0.4 mg/kg IV, 4 patients, after C1D1
T1 construct: endogenous in cells; host or cells: peripheral leukocytes (WBC) of trial patients
Experimental: Methods A dose escalation study using a 3 + 3 design with doses ranging from 0.04 to 0.4 mg/kg IV twice weekly (BIW) was performed. Eligible subjects had solid tumors of any histology that had progressed on standard treatment and had measurable tumor by RECIST v1.1. Tumor assessment was performed at 8-week intervals. BCL-XL levels were measured in peripheral leukocytes by western blotting. Results Twenty patients were enrolled, with a median age of 60.5 year; 60% were female. Only one dose-limiting toxicity was observed, grade 4 thrombocytopenia that resolved within 48 h. Stable disease, observed in 20% of the patients. The lowest platelet count in the first cycle ranged from 24,000 to 297,000. In all cases, the platelet count recovered to > 50,000 within 4 days and > 75,000 within 1 week. […] The median overall survival was 7.9 months. […] Conclusions Based on the rapid recovery of transient thrombocytopenia that occurred only in the first cycle and the degradation of BCL-XL in peripheral leukocytes, the RP2D of DT2216 is 0.4 mg/kg IV BIW. (NCT04886622)
Premedication prior to each infusion was at the discretion of the investigator or according to institutional guidelines. Patient assessment and follow-up procedures can be found in the schedule of assessments in this study. The clinical response was evaluated using RECIST v1.1 per protocol. […]

BCL-XL [2] = system: BCL-XL; parameters: method as in PMID 31792461; conditions: MOLT-4 T-ALL xenografts, after a single dosing; cited from earlier work
[3] = Safety and tolerability in patients (adverse events CTCAE v5.0, DLT, platelet count, RP2D); assay type: in vivo, human
Experimental: Dose escalation consisted of the administration of DT2216 intravenously twice weekly at several different doses outlined in protocol attached. The starting dose was 0.04 mg/kg, established based on pre-clinical toxicity studies. Safety was evaluated using CTCAE version 5.0. The initial three dose levels enrolled one patient, following which for dose level 4 and 5, a 3 + 3 design was utilized following a 100% incremental dose increase for dose levels 2 to 5 until the first dose limiting toxicity (DLT) in cycle 1 was observed. Thereafter, a modified Fibonacci sequence was used to define dose escalation increments until the maximum tolerated dose (MTD) was reached as described in protocol. If no dose-limiting toxicity (DLT) was observed during the DLT monitoring period of first 28 days, the next patient was enrolled at the next higher dose level. Dose-limiting toxicities (DLTs) during the first treatment cycle were defined as any Grade 5 toxicity; Grade 4 neutropenia lasting > 7 days; febrile neutropenia; Grade 4 thrombocytopenia or Grade 3 thrombocytopenia with clinically significant hemorrhage or lasting ≥ 7 days; and Grade ≥ 3 non-hematologic toxicities, excluding nausea, vomiting, or diarrhea lasting ≤ 3 days or transient laboratory abnormalities resolving within 72 h. Hepatotoxicity meeting Hy’s law criteria was also considered a DLT. Transient Grade 3–4 electrolyte abnormalities resolving to ≤ Grade 2 within 72 h were not considered DLTs.
Patients were allowed a maximum of two intra-patient dose escalations. Patients received DT2216 by intravenous infusion on days 1 and 4 weekly for at least 4 weeks, with each cycle consisting of a 28-day cycle for a maximum duration of 1 year until disease progression, unacceptable toxicity, or other withdrawal criteria, as listed in the protocol. The extent of disease was evaluated using imaging studies and disease-appropriate tumor markers every 8 weeks from day 1 of the first cycle. RP2D was established based on MTD as well as other relevant data, including clinical signals of activity, PK, and PD data.
Premedication prior to each infusion was at the discretion of the investigator or according to institutional guidelines. Patient assessment and follow-up procedures can be found in the schedule of assessments in this study. The clinical response was evaluated using RECIST v1.1 per protocol. Blood samples were collected for PK analysis before and after post-infusion at defined intervals, along with platelet counts. Exploratory biomarkers include (but are not limited to) the assessment of BCL-XL and VHL levels in peripheral white blood cells (WBC).

[4] = number of subjects, 20 patients, all dose cohorts
[5] = related TEAE, 20 patients, all dose cohorts

T1 sequence (Q07817 whole entry): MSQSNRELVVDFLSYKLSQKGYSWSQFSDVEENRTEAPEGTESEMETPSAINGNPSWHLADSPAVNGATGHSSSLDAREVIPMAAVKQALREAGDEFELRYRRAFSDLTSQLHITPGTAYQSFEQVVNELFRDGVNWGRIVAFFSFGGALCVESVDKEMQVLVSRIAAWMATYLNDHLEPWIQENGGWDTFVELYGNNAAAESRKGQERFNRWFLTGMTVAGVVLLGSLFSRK

In the case of `Cc1ncsc1-c1ccc([C@H](C)NC(=O)[C@@H]2C[C@@H](O)CN2C(=O)[C@@H](NC(=O)CCCCCC(=O)N2CCN(CC[C@H](CSc3ccccc3)Nc3ccc(S(=O)(=O)NC(=O)c4ccc(N5CCN(CC6=C(c7ccc(Cl)cc7)CCC(C)(C)C6)CC5)cc4)cc3S(=O)(=O)C(F)(F)F)CC2)C(C)(C)C)cc1` [DT2216], the “BCL-XL expression in peripheral leukocytes” value (BCL-XL [1]) is given as “rapid and sustained degradation of BCL-XL; also recorded: decreases rapidly after infusion of DT2216 and is persistent”, the “duration of BCL-XL degradation” value (BCL-XL [2]) is given as “approximately 2 weeks” and the “fatigue, related TEAE” value ([3]; 2 patients of 20) is given as 10%. The “infusion-related reaction, related TEAE” value ([3]; 2 patients of 20) was 10%, the “thrombocytopenia, related TEAE” value ([3]; 9 patients of 20) was 45% and the “bleeding events and treatment related deaths” value ([3]; 20 patients) was “no episodes of bleeding or treatment emergent adverse events leading to death; also recorded: no major bleeding events or treatment related deaths”. For the same compound, the “Treatment discontinuation: Adverse event (subjects)” value (“Treatment discontinuation” for short) ([3]; Cohort 1 (0.04 mg/kg), 1 treated) was 0, the “Treatment discontinuation” value ([3]; Cohort 2 (0.08 mg/kg), 1 treated) was 0 and the “Treatment discontinuation” value ([3]; Cohort 3 (0.12 mg/kg), 1 treated) was 0. The “Treatment discontinuation” value ([3]; Cohort 4 (0.24 mg/kg), 7 treated) was 0, the “Treatment discontinuation” value ([3]; Cohort 5 (0.32 mg/kg), 6 treated) was 0 and the “Treatment discontinuation” value ([3]; Cohort 6 (0.40 mg/kg), 4 treated) was 0. For the same compound, the “patients with at least one related treatment-emergent adverse event (TEAE)” value ([3]; Sixteen of 20 patients) was 80%, the “Treatment discontinuation” value ([3]; Total, 20 treated) was 0 and the “time to platelet count recovery to > 50,000” value ([3]; all cases) was ≤ 4 days. For the same compound, the “time to platelet count recovery to > 75,000” value ([3]; all cases) was ≤ 1 week, the “number of dose-limiting toxicities (grade 4 thrombocytopenia)” value ([3]; dose escalation 0.04 to 0.4 mg/kg IV BIW, DLT at 0.32 mg/kg) was “one” and the “lowest platelet count observed during the study” value ([3]; human, in vivo) was 24,000 /µL. For the same compound, the “median duration of dose interruption due to thrombocytopenia” value ([3]; human, in vivo) was 5 days, the “time to resolution of the grade 4 thrombocytopenia DLT” value ([3]; human, in vivo) was ≤ 48 h and the “Alanine aminotransferase increased, Grade > 3” value [3, 4] was 0. For the same compound, the “Blood bilirubin increased, Grade > 3” value [3, 4] was 0, the “Contusion, Grade > 3” value [3, 4] was 0 and the “Decreased appetite, Grade > 3” value [3, 4] was 0. For the same compound, the “Fatigue, Grade > 3” value [3, 4] was 0, the “Hematuria, Grade > 3” value [3, 4] was 0 and the “Infusion related reaction, Grade > 3” value [3, 4] was 0. For the same compound, the “Lipase increased, Grade > 3” value [3, 4] was 0, the “Temperature intolerance, Grade > 3” value [3, 4] was 0 and the “Thrombocytopenia, Grade > 3” value [3, 4] was 1. The “patients with dose interruption due to thrombocytopenia” value ([3]; of 20 patients) was 8 patients, the “patients with dose reduction due to thrombocytopenia” value ([3]; of 20 patients) was 2 patients and 1 patients and the “need for platelet transfusions” value ([3]; patients with thrombocytopenia) was “none of the patients required platelet transfusions”. The “Alanine aminotransferase increased, Number of subjects (%)” value [3, 5] was 1 (5) subjects (%), the “Blood bilirubin increased, Number of subjects (%)” value [3, 5] was 1 (5) subjects (%) and the “Contusion, Number of subjects (%)” value [3, 5] was 1 (5) subjects (%). For the same compound, the “Decreased appetite, Number of subjects (%)” value [3, 5] was 1 (5) subjects (%), the “Fatigue, Number of subjects (%)” value [3, 5] was 2 (10) subjects (%) and the “Hematuria, Number of subjects (%)” value [3, 5] was 1 (5) subjects (%). For the same compound, the “Infusion related reaction, Number of subjects (%)” value [3, 5] was 2 (10) subjects (%), the “Lipase increased, Number of subjects (%)” value [3, 5] was 1 (5) subjects (%) and the “Temperature intolerance, Number of subjects (%)” value [3, 5] was 1 (5) subjects (%). For the same compound, the “Thrombocytopenia, Number of subjects (%)” value [3, 5] was 9 (45) subjects (%).
